Patent US11479559B2, “Urea-substituted aromatic ring-linked dioxinoquinoline compounds, preparation method and uses thereof” (BEIJING SCITECH-MQ PHARMACEUTICALS LIMITED, priority 2018, dated 2022)
Read-outs that look alike come from different tables or passages of the source.

How the values were obtained:
RET tyrosine kinase = RET tyrosine kinase (Homo sapiens (Human), UniProt P07949); assay: Assay of small molecular compounds for inhibiting the activity of RET kinase (LANCE TR-FRET)
Description: (§1) The assay is based on the LANCE TR-FRET technology of Perkin Elmer Inc., and the assay method is as follows:
(§2) 2.5 μL of the gradient-diluted compounds were taken with a transfer pipette to a 384-well plate.
Addition of enzyme: 5 μL of 2× RET kinase solution (concentration was 0.8 nM) was taken with a transfer pipette to the corresponding reaction well of the 384-well plate, mixed well and pre-reacted at room temperature for 30 minutes.
2.5 μL 4× Ultra ULight™-JAK-1 (Tyr1023) Peptide (concentration was 200 nM)/ATP (concentration was 40 μM) mixture was taken with a transfer pipette to the corresponding reaction well of the 384-well plate.
(§3) The final concentration of DMSO in the reaction system was 4%.
(§4) The mixture was mixed well and then centrifuged and reacted at room temperature in dark for 60 min.
(§5) The 384-well plate was placed into the Envision plate reader and the signal was detected using the appropriate program.

VEGFR2 tyrosine kinase = VEGFR2 tyrosine kinase (Homo sapiens (Human), UniProt P35968); assay: Assay of small molecular compounds for inhibiting the activity of VEGFR-2 kinase (LANCE TR-FRET)
VEGFR2 tyrosine kinase, sequence (P35968 20-1356): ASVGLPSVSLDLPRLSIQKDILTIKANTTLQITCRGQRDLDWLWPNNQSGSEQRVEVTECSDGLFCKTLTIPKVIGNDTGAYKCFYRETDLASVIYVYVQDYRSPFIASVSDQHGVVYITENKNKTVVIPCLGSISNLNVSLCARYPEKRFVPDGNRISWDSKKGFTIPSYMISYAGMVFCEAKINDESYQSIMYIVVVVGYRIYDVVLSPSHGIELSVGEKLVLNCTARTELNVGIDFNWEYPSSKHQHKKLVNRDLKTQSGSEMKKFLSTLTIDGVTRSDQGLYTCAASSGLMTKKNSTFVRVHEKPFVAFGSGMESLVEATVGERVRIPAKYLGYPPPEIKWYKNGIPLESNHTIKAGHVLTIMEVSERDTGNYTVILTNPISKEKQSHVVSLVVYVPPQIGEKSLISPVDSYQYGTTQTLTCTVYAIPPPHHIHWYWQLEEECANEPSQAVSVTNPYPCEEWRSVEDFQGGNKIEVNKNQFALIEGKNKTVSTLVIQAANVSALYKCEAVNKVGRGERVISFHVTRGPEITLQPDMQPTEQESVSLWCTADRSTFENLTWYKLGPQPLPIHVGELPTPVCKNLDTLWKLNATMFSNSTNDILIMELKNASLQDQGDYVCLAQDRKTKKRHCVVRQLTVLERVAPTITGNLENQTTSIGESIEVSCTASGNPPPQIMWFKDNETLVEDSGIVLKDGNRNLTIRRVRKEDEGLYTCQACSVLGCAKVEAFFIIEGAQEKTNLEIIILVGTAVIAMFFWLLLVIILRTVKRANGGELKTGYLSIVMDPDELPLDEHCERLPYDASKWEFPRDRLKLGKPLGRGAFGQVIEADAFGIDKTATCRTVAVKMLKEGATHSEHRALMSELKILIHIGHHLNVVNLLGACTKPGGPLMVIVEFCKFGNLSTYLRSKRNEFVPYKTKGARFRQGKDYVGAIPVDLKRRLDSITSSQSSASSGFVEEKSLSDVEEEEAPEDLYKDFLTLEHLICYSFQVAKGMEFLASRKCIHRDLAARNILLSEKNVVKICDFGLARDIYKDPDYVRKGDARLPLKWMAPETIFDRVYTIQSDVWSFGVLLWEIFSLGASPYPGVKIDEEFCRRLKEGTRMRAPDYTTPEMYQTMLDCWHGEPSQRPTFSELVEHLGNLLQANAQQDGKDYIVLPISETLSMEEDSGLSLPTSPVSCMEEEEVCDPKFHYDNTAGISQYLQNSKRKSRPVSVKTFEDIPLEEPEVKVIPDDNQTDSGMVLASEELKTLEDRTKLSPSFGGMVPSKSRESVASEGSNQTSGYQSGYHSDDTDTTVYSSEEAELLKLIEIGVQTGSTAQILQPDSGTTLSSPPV
Description: as §1, §2
Addition of enzyme: 5 μL of 2× VEGFR2 kinase solution (concentration was 0.5 nM) was taken with a transfer pipette to the corresponding reaction well of the 384-well plate, mixed well and pre-reacted at room temperature for 30 minutes.
2.5 μL 4× Ultra ULight™-JAK-1 (Tyr1023) Peptide (concentration was 200 nM)/ATP (concentration was 40 μMM) mixture was taken with a transfer pipette to the corresponding reaction well of the 384-well plate.
Negative control: 2.5 μL/well 4× substrate/ATP mixture and 7.5 μL 1× Kinase Assay Buffer were added to the wells of the 384-well plate.
as §3, §4, §5

RET tyrosine kinase, sequence (P07949 29-1114): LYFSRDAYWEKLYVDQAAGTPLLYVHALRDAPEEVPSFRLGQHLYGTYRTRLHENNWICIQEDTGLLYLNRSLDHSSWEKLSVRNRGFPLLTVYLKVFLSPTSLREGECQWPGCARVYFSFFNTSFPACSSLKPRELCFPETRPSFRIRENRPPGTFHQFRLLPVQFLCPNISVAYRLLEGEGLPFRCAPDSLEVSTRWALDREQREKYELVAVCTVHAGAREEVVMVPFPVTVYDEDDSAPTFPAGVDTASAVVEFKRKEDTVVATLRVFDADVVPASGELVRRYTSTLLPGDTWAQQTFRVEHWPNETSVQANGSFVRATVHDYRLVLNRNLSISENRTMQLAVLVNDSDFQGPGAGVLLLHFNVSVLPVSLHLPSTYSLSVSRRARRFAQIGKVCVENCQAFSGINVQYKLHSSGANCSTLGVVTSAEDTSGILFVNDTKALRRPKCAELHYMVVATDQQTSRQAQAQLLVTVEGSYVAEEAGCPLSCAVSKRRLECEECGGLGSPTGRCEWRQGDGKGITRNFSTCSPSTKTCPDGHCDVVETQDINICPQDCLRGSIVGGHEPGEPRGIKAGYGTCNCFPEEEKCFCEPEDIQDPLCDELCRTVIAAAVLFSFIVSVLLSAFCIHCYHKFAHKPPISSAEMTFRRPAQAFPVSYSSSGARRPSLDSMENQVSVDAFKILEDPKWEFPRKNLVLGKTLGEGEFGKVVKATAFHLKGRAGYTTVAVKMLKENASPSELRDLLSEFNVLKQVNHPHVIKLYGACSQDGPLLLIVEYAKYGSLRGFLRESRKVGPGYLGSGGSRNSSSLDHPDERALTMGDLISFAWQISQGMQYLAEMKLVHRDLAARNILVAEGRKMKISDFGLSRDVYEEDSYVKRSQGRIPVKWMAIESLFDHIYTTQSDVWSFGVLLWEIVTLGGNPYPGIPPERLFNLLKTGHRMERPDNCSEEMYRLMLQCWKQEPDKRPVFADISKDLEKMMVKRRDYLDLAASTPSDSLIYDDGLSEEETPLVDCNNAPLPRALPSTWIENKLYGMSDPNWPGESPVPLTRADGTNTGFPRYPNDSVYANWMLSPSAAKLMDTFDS

| SMILES | IC50 (RET tyrosine kinase; read-out: RET IC50) | IC50 (VEGFR2 tyrosine kinase; read-out: VEGFR-2 IC50) | IC50 (RET tyrosine kinase) | IC50 (VEGFR2 tyrosine kinase) |
| --- | --- | --- | --- | --- |
| COc1cc2nccc(Oc3ccc(NC(=O)Nc4ccc(Cl)c(C(F)(F)F)c4)cc3F)c2c2c1OCCO2 [Example 5, 1-(4-chloro-3-(trifluoromethyl)phenyl)-3-(3-fluoro-4-((5-methoxy-2,3-dihydro-[1,4]dioxino[2,3-f]quinolin-10-yl)oxy)phenyl)urea] | < 50 nM | 50 to 500 nM |  |  |
| CN(C)CCCOc1cc2nccc(Oc3ccc(NC(=O)Nc4ccc(Cl)c(C(F)(F)F)c4)cc3)c2c2c1OCCO2 [Example 17, 1-(4-chloro-3-(trifluoromethyl)phenyl)-3-(4-((5-(3-(dimethylamino)propoxy)-2,3-dihydro-[1, 4]dioxino[2,3-f]quinolin-10-yl)oxy)phenyl)urea] | < 50 nM | < 50 nM |  |  |
| O=C(Nc1ccc(Oc2ccnc3cc(OCCCN4CCOCC4)c4c(c23)OCCO4)cc1)Nc1ccc(F)cc1F [Example 78, 1-(2,4-difluorophenyl)-3-(4-((5-(3-morpholinopropoxy)-2,3-dihydro-[1,4]dioxino[2,3-f]quinolin-10-yl)oxy)phenyl)urea] | < 50 nM | < 50 nM |  |  |
| CCNC(=O)Nc1ccc(Oc2ccnc3cc(OC)c4c(c23)OCCO4)cc1Cl [Example 80, 1-(2-chloro-4-((5-methoxy-2,3-dihydro-[1,4]dioxino[2,3-f]quinolin-10-yl)oxy)phenyl)-3-ethylurea] | < 50 nM | < 50 nM |  |  |
| COc1cc2nccc(Oc3ccc(NC(=O)Nc4ccc(Cl)c(C(F)(F)F)c4)cc3)c2c2c1OCCO2 [Example 1, 1-(4-chloro-3-(trifluoromethyl)phenyl)-3-(4-((5-methoxy-2,3-dihydro-[1,4]dioxino[2,3-f]quinolin-10-yl)oxy)phenyl)urea] | < 50 nM | < 50 nM |  |  |
| COc1cc2nccc(Oc3ccc(NC(=O)NC4CC4)c(F)c3)c2c2c1OCCO2 [Example 84, 1-cyclopropyl-3-(2-fluoro-4-((5-methoxy-2,3-dihydro-[1,4]dioxino[2,3-f]quinolin-10-yl)oxy)phenyl)urea] |  |  | < 50 nM | < 50 nM |
| CC1(O)CCN(CCCOc2cc3nccc(Oc4ccc(NC(=O)Nc5ccc(Cl)c(C(F)(F)F)c5)cc4)c3c3c2OCCO3)CC1 [Example 25, 1-(4-chloro-3-(trifluoromethyl)phenyl)-3-(4-((5-(3-(4-hydroxy-4-methylpiperidin-1-yl)propoxy)-2,3-dihydro-[1,4]dioxino[2,3-f]quinolin-10-yl)oxy)phenyl)urea] | < 50 nM | < 50 nM |  |  |
| COc1cc2nccc(Oc3ccc(NC(=O)Nc4cc(C(F)(F)F)ccc4C)cc3)c2c2c1OCCO2 [Example 95, 1-(4-((5-methoxy-2,3-dihydro-[1,4]dioxino[2,3-f]quinolin-10-yl)oxy)phenyl)-3-(2-methyl-5-(trifluoromethyl)phenyl)urea] | < 50 nM | < 50 nM |  |  |
| CN1CCN(CCCOc2cc3nccc(Oc4ccc(NC(=O)Nc5ccc(Cl)c(C(F)(F)F)c5)cc4)c3c3c2OCCO3)CC1 [Example 21, 1-(4-chloro-3-(trifluoromethyl)phenyl)-3-(4-((5-(3-(4-methylpiperazin-1-yl)propoxy)-2,3-dihydro-[1,4]dioxino[2,3-f]quinolin-10-yl)oxy)phenyl)urea] | < 50 nM | < 50 nM |  |  |
| N#CCCCOc1cc2nccc(Oc3ccc(NC(=O)Nc4ccc(Cl)c(C(F)(F)F)c4)cc3)c2c2c1OCCO2 [Example 94, 1-(4-chloro-3-(trifluoromethyl)phenyl)-3-(4-((5-(3-cyanopropoxy)-2,3-dihydro-[1,4]dioxino[2,3-f]quinolin-10-yl)oxy)phenyl)urea] | < 50 nM |  |  | 50 to 500 nM |
| CCCNC(=O)Nc1ccc(Oc2ccnc3cc(OC)c4c(c23)OCCO4)cc1Cl [Example 81, 1-(2-chloro-4-((5-methoxy-2,3-dihydro-[1,4]dioxino[2,3-f]quinolin-10-yl)oxy)phenyl)-3-propylurea] | < 50 nM | < 50 nM |  |  |
| Cc1ccc(C(F)(F)F)cc1NC(=O)Nc1ccc(Oc2ccnc3cc(OCCCN4CCOCC4)c4c(c23)OCCO4)cc1 [Example 96, 1-(2-methyl-5-(trifluoromethyl)phenyl)-3-(4-((5-(3-morpholinopropoxy)-2,3-dihydro-[1,4]dioxino[2,3-f]quinolin-10-yl)oxy)phenyl)urea] | < 50 nM |  |  | 50 to 500 nM |

Results, then the compound that gave them:

| IC50 (RET tyrosine kinase; read-out: RET IC50) | IC50 (VEGFR2 tyrosine kinase; read-out: VEGFR-2 IC50) | IC50 (RET tyrosine kinase) | IC50 (VEGFR2 tyrosine kinase) | SMILES |
| --- | --- | --- | --- | --- |
| < 50 nM | < 50 nM |  |  | O=C(Nc1ccc(Oc2ccnc3cc(OCCCN4CCCCC4)c4c(c23)OCCO4)cc1Cl)NC1CC1 [Example 54, 1-(2-chloro-4-((5-(3-(piperidin-1-yl)propoxy)-2,3-dihydro-[1,4]dioxino[2,3-f]quinolin-10-yl)oxy)phenyl)-3-cyclopropylurea] |
| < 50 nM | < 50 nM |  |  | O=C(Nc1ccc(Oc2ccnc3cc(OCC4CC4)c4c(c23)OCCO4)cc1Cl)NC1CC1 [Example 46, 1-(2-chloro-4-((5-(cyclopropylmethoxy)-2,3-dihydro-[1,4]dioxino[2,3-f]quinolin-10-yl)oxy)phenyl)-3-cyclopropylurea] |
| < 50 nM | < 50 nM |  |  | CCOc1cc2nccc(Oc3ccc(NC(=O)NC4CC4)c(F)c3)c2c2c1OCCO2 [Example 90, 1-cyclopropyl-3-(4-((5-ethoxy-2,3-dihydro-[1,4]dioxino[2,3-f]quinolin-10-yl)oxy)-2-fluorophenyl)urea] |
| < 50 nM | < 50 nM |  |  | O=C(Nc1ccc(Oc2ccnc3cc(OCCO)c4c(c23)OCCO4)cc1Cl)NC1CC1 [Example 48, 1-(2-chloro-4-((5-(2-hydroxyethoxy)-2,3-dihydro-[1,4]dioxino[2,3-f]quinolin-10-yl)oxy)phenyl)-3-cyclopropylurea] |
| < 50 nM | < 50 nM |  |  | COCCN(C)CCCOc1cc2nccc(Oc3ccc(NC(=O)NC4CC4)c(Cl)c3)c2c2c1OCCO2 [Example 62, 1-(2-chloro-4-((5-(3-((2-methoxyethyl)(methyl)amino)propoxy)-2,3-dihydro-[1,4]dioxino[2,3-f]quinolin-10-yl)oxy)phenyl)-3-cyclopropylurea] |
| < 50 nM | < 50 nM |  |  | O=C(Nc1ccc(Oc2ccnc3cc(OCCCN4CCOCC4)c4c(c23)OCCO4)cc1Cl)NC1CCC1 [Example 74, 1-(2-chloro-4-((5-(3-morpholinopropoxy)-2,3-dihydro-[1,4]dioxino[2,3-f]quinolin-10-yl)oxy)phenyl)-3-cyclobutylurea] |
| < 50 nM | < 50 nM |  |  | CN(C)CCCCCCOc1cc2nccc(Oc3ccc(NC(=O)NC4CC4)c(Cl)c3)c2c2c1OCCO2 [Example 64, 1-(2-chloro-4-((5-((6-(dimethylamino)hexyl)oxy)-2,3-dihydro-[1,4]dioxino[2,3-f]quinolin-10-yl)oxy)phenyl)-3-cyclopropylurea] |
| < 50 nM | < 50 nM |  |  | COCCOc1cc2nccc(Oc3ccc(NC(=O)NC4CCC4)c(Cl)c3)c2c2c1OCCO2 [Example 70, 1-(2-chloro-4-((5-(2-methoxyethoxy)-2,3-dihydro-[1,4]dioxino[2,3-f]quinolin-10-yl)oxy)phenyl)-3-cyclobutylurea] |
| < 50 nM | < 50 nM |  |  | CN1CCN(CCCOc2cc3nccc(Oc4ccc(NC(=O)NC5CC5)c(Cl)c4)c3c3c2OCCO3)CC1 [Example 56, 1-(2-chloro-4-((5-(3-(4-methylpiperazin-1-yl)propoxy)-2,3-dihydro-[1,4]dioxino[2,3-f]quinolin-10-yl)oxy)phenyl)-3-cyclopropylurea] |
| < 50 nM | < 50 nM |  |  | O=C(Nc1ccc(Oc2ccnc3cc(OCCCN4CCS(=O)(=O)CC4)c4c(c23)OCCO4)cc1Cl)NC1CC1 [Example 58, 1-(2-chloro-4-((5-(3-(1,1-dioxothiomorpholino)propoxy)-2,3-dihydro-[1,4]dioxino[2,3-f]quinolin-10-yl)oxy)phenyl)-3-cyclopropylurea] |
| < 50 nM | < 50 nM |  |  | CC1(N)CCN(CCCOc2cc3nccc(Oc4ccc(NC(=O)NC5CC5)c(Cl)c4)c3c3c2OCCO3)CC1 [Example 61, 1-(4-((5-(3-(4-amino-4-methylpiperidin-1-yl)propoxy)-2,3-dihydro-[1,4]dioxino[2,3-f]quinolin-10-yl)oxy)-2-chlorophenyl)-3-cyclopropylurea] |
|  |  | < 50 nM | < 50 nM | CCNC(=O)Nc1ccc(Oc2ccnc3cc(OCCCN4CCOCC4)c4c(c23)OCCO4)cc1Cl [Example 86, 1-(2-chloro-4-((5-(3-morpholinopropoxy)-2,3-dihydro-[1,4]dioxino[2,3-f]quinolin-10-yl)oxy)phenyl)-3-ethylurea] |
| < 50 nM | < 50 nM |  |  | CC(=O)N1CCN(CCCOc2cc3nccc(Oc4ccc(NC(=O)NC5CC5)c(Cl)c4)c3c3c2OCCO3)CC1 [Example 57, 1-(4-((5-(3-(4-acetylpiperazin-1-yl)propoxy)-2,3-dihydro-[1,4]dioxino[2,3-f]quinolin-10-yl)oxy)-2-chlorophenyl)-3-cyclopropylurea] |
| < 50 nM | < 50 nM |  |  | COCCOc1cc2nccc(Oc3ccc(NC(=O)NC4CC4)c(Cl)c3)c2c2c1OCCO2 [Example 49, 1-(2-chloro-4-((5-(2-methoxyethoxy)-2,3-dihydro-[1,4]dioxino[2,3-f]quinolin-10-yl)oxy)phenyl)-3-cyclopropylurea] |
| < 50 nM | < 50 nM |  |  | O=C(Nc1ccc(Oc2ccnc3cc(OCCCN4CCCC4)c4c(c23)OCCO4)cc1Cl)NC1CC1 [Example 53, 1-(2-chloro-4-((5-(3-(pyrrolidin-1-yl)propoxy)-2,3-dihydro-[1,4]dioxino[2,3-f]quinolin-10-yl)oxy)phenyl)-3-cyclopropylurea] |
| < 50 nM | < 50 nM |  |  | CC1(O)CCN(CCCOc2cc3nccc(Oc4ccc(NC(=O)NC5CC5)c(Cl)c4)c3c3c2OCCO3)CC1 [Example 60, 1-(2-chloro-4-((5-(3-(4-hydroxy-4-methylpiperidin-1-yl)propoxy)-2,3-dihydro-[1,4]dioxino[2,3-f]quinolin-10-yl)oxy)phenyl)-3-cyclopropylurea] |
